Among the data in US20240208970A1, “SUBSTITUTED HYDANTOIN COMPOUNDS, METHODS FOR PREPARATION THEREOF AND USE THEREOF IN THE TREATMENT AND/OR PREVENTION OF A CORONA VIRUS DISEASE” (priority 2021, published 2024) are IC50 values, retold here.

pIC50: −log10 of the molar value.

The target in one assay is SARS-CoV-2 M^pro protease (Severe acute respiratory syndrome coronavirus 2 (2019-nCoV) (SARS-CoV-2), UniProt P0DTD1). In words: biochemical. In kind it is biochemical. The note with it: Table 5A; M^pro 75 nM, substrate 10 μM.
The term pIC50 denotes the negative decadic logarithm of the IC50, by convention in mol/L. For the compound `Cc1c(Br)cncc1N1C(=O)NC2(CC(C(C)(C)C)C2)C1=O` (stereo not shown) [Compound 5, 7-(5-bromo-4-methylpyridin-3-yl)-2-tert-butyl-5,7-diazaspiro[3.4]octane-6,8-dione], the pIC50 is 5.57.
In the case of `Cc1c(Br)cncc1N1C(=O)NC2(CC(C3CCC3)C2)C1=O` (stereo not shown) [Compound 6, 7-(5-bromo-4-methylpyridin-3-yl)-2-cyclobutyl-5,7-diazaspiro[3.4]octane-6,8-dione], the pIC50 was 5.70.
The same measure, in the same setting: next, `Cc1c(Br)cncc1N1C(=O)NC2(CC(c3ccccc3)C2)C1=O` (stereo not shown) [Compound 7, 7-(5-bromo-4-methylpyridin-3-yl)-2-phenyl-5,7-diazaspiro[3.4]octane-6,8-dione]: 5.70; `Cc1cccnc1CN1C(=O)NC2(CC(C(C)(C)C)C2)C1=O` (stereo not shown) [Compound 9, 2-tert-butyl-7-[(3-methylpyridin-2-yl)methyl]-5,7-diazaspiro[3.4]octane-6,8-dione]: less than 5.00.
Same read-out and setting: with `Cc1ccncc1N1C(=O)NC2(CC(c3ccccc3)C2)C1=O` (stereo not shown) [Compound 11, 7-(4-methylpyridin-3-yl)-2-phenyl-5,7-diazaspiro[3.4]octane-6,8-dione] the figure was 5.64; with `CC(C)(C)C1CC2(C1)NC(=O)N(c1cncc(F)c1)C2=O` (stereo not shown) [Compound 12, 2-tert-butyl-7-(5-fluoropyridin-3-yl)-5,7-diazaspiro[3.4]octane-6,8-dione], 5.26.
The same measure, in the same setting: next, `O=C1NC2(CC(C3CCC3)C2)C(=O)N1c1cncc(Br)c1` (stereo not shown) [Compound 14, 7-(5-bromopyridin-3-yl)-2-cyclobutyl-5,7-diazaspiro[3.4]octane-6,8-dione]: 5.22.

Still in this assay, the particulars now being: Tables 5B-5E; M^pro 75 nM, substrate 10 μM.
For `O=C1NC2(CC(c3ccccc3Br)C2)C(=O)N1c1cncc2ccccc12` (single isomer, unassigned) [Compound 16, 2-(2-bromophenyl)-7-(isoquinolin-4-yl)-5,7-diazaspiro[3.4]octane-6,8-dione], the pIC50 is 6.90.
With `O=C1NC2(CC(c3ccccc3Br)C2)C(=O)N1c1cncc2ccccc12` (single isomer, unassigned) [Compound 17, 2-(2-bromophenyl)-7-(isoquinolin-4-yl)-5,7-diazaspiro[3.4]octane-6,8-dione], the pIC50 is 7.10.
Same read-out and setting: with `O=C1NC2(CC(c3c(Cl)cccc3Cl)C2)C(=O)N1c1cncc2ccccc12` (single isomer, unassigned) [Compound 28, 2-(2,6-dichlorophenyl)-7-(isoquinolin-4-yl)-5,7-diazaspiro[3.4]octane-6,8-dione] the figure was 6.54; with `O=C1NC2(CC(c3c(Cl)cccc3Cl)C2)C(=O)N1c1cncc2ccccc12` (single isomer, unassigned) [Compound 29, 2-(2,6-dichlorophenyl)-7-(isoquinolin-4-yl)-5,7-diazaspiro[3.4]octane-6,8-dione], 6.78; with `O=C1NC2(CC(c3cccc(F)c3Cl)C2)C(=O)N1c1cncc2ccccc12` (single isomer, unassigned) [Compound 30, 2-(2-chloro-3-fluorophenyl)-7-(isoquinolin-4-yl)-5,7-diazaspiro[3.4]octane-6,8-dione], 6.43.
With `O=C1NC2(CC(c3cccc(F)c3Cl)C2)C(=O)N1c1cncc2ccccc12` (single isomer, unassigned) [Compound 31, 2-(2-chloro-3-fluorophenyl)-7-(isoquinolin-4-yl)-5,7-diazaspiro[3.4]octane-6,8-dione], the pIC50 is 6.82.
Regarding `O=C1NC2(CC(c3cc(F)ccc3Cl)C2)C(=O)N1c1cncc2ccccc12` (single isomer, unassigned) [Compound 34, 2-(2-chloro-5-fluorophenyl)-7-(isoquinolin-4-yl)-5,7-diazaspiro[3.4]octane-6,8-dione], the pIC50 was 6.32.
`O=C1NC2(CC(c3cc(F)ccc3Cl)C2)C(=O)N1c1cncc2ccccc12` (single isomer, unassigned) [Compound 35, 2-(2-chloro-5-fluorophenyl)-7-(isoquinolin-4-yl)-5,7-diazaspiro[3.4]octane-6,8-dione] showed a pIC50 of 7.09.
The same measure, in the same setting: next, `O=C1NC2(CC(c3c(F)cccc3Cl)C2)C(=O)N1c1cncc2ccccc12` (single isomer, unassigned) [Compound 36, 2-(2-chloro-6-fluorophenyl)-7-(isoquinolin-4-yl)-5,7-diazaspiro[3.4]octane-6,8-dione]: 6.69.
`O=C1NC2(CC(c3c(F)cccc3Cl)C2)C(=O)N1c1cncc2ccccc12` (single isomer, unassigned) [Compound 37, 2-(2-chloro-6-fluorophenyl)-7-(isoquinolin-4-yl)-5,7-diazaspiro[3.4]octane-6,8-dione]: the pIC50 was 7.19.
Same read-out and setting: next, `CC1(c2ccccc2)CC2(C1)NC(=O)N(c1cncc3ccccc13)C2=O` (single isomer, unassigned) [Compound 38, 7-(isoquinolin-4-yl)-2-methyl-2-phenyl-5,7-diazaspiro[3.4]octane-6,8-dione]: 7.15.
Compound `CC1(c2ccccc2)CC2(C1)NC(=O)N(c1cncc3ccccc13)C2=O` (single isomer, unassigned) [Compound 39, 7-(isoquinolin-4-yl)-2-methyl-2-phenyl-5,7-diazaspiro[3.4]octane-6,8-dione] showed a negative-log IC50 (pIC50) of 6.03.
The same measure, in the same setting: with `O=C1NC2(CC(c3ccsc3Cl)C2)C(=O)N1c1cncc2ccccc12` (single isomer, unassigned) [Compound 40, 2-(2-chlorothiophen-3-yl)-7-(isoquinolin-4-yl)-5,7-diazaspiro[3.4]octane-6,8-dione] the figure was 6.52; with `O=C1NC2(CC(c3ccsc3Cl)C2)C(=O)N1c1cncc2ccccc12` (single isomer, unassigned) [Compound 41, 2-(2-chlorothiophen-3-yl)-7-(isoquinolin-4-yl)-5,7-diazaspiro[3.4]octane-6,8-dione], 7.09.
In turn, `O=C1NC2(CC(c3sccc3Cl)C2)C(=O)N1c1cncc2ccccc12` (single isomer, unassigned) [Compound 42, 2-(3-chlorothiophen-2-yl)-7-(isoquinolin-4-yl)-5,7-diazaspiro[3.4]octane-6,8-dione] had a pIC50 of 6.73.
Same read-out and setting: next, `O=C1NC2(CC(c3sccc3Cl)C2)C(=O)N1c1cncc2ccccc12` (single isomer, unassigned) [Compound 43, 2-(3-chlorothiophen-2-yl)-7-(isoquinolin-4-yl)-5,7-diazaspiro[3.4]octane-6,8-dione]: 7.23.
The same measure, in the same setting: with `O=C1NC2(CC(c3sccc3Br)C2)C(=O)N1c1cncc2ccccc12` (single isomer, unassigned) [Compound 44, 2-(3-bromothiophen-2-yl)-7-(isoquinolin-4-yl)-5,7-diazaspiro[3.4]octane-6,8-dione] the figure was 7.09; with `O=C1NC2(CC(c3sccc3Br)C2)C(=O)N1c1cncc2ccccc12` (single isomer, unassigned) [Compound 45, 2-(3-bromothiophen-2-yl)-7-(isoquinolin-4-yl)-5,7-diazaspiro[3.4]octane-6,8-dione], 7.24; with `CC1(c2ccc(F)cc2Cl)CC2(C1)NC(=O)N(c1cncc3ccccc13)C2=O` (single isomer, unassigned) [Compound 83, 2-(2-chloro-4-fluorophenyl)-7-(isoquinolin-4-yl)-2-methyl-5,7-diazaspiro[3.4]octane-6,8-dione], 6.62.
`CC1(c2ccc(F)cc2Cl)CC2(C1)NC(=O)N(c1cncc3ccccc13)C2=O` (single isomer, unassigned) [Compound 84, 2-(2-chloro-4-fluorophenyl)-7-(isoquinolin-4-yl)-2-methyl-5,7-diazaspiro[3.4]octane-6,8-dione] gave a negative logarithm of the IC50 (pIC50) of 6.09.
Compound `O=C1NC2(CC(c3ccccc3F)C2)C(=O)N1c1cncc2ccccc12` (stereo not shown) [Compound 18, 2-(2-fluorophenyl)-7-(isoquinolin-4-yl)-5,7-diazaspiro[3.4]octane-6,8-dione] showed a pIC50 of 6.47.
Still for that read-out and setting: with `O=C1NC2(CC(c3ccccc3F)C2)C(=O)N1c1cncc2ccccc12` (stereo not shown) [Compound 19, 2-(2-fluorophenyl)-7-(isoquinolin-4-yl)-5,7-diazaspiro[3.4]octane-6,8-dione] the figure was 6.49; with `COc1ccccc1C1CC2(C1)NC(=O)N(c1cncc3ccccc13)C2=O` (stereo not shown) [Compound 20, 7-(isoquinolin-4-yl)-2-(2-methoxyphenyl)-5,7-diazaspiro[3.4]octane-6,8-dione], 6.32.
In turn, `O=C1NC2(CC(c3ccccc3C(F)(F)F)C2)C(=O)N1c1cncc2ccccc12` (stereo not shown) [Compound 22, 7-(isoquinolin-4-yl)-2-(2-(trifluoromethyl)phenyl)-5,7-diazaspiro[3.4]octane-6,8-dione] had a pIC50 of 6.71.
On the same count and under the same terms, next, `Cc1ccccc1C1CC2(C1)NC(=O)N(c1cncc3ccccc13)C2=O` (stereo not shown) [Compound 23, 7-(isoquinolin-4-yl)-2-(o-tolyl)-5,7-diazaspiro[3.4]octane-6,8-dione]: 6.03; `N#Cc1ccccc1C1CC2(C1)NC(=O)N(c1cncc3ccccc13)C2=O` (stereo not shown) [Compound 24, 2-(7-(isoquinolin-4-yl)-6,8-dioxo-5,7-diazaspiro[3.4]octan-2-yl)benzonitrile]: 7.07.
Same read-out and setting: with `O=C1NC2(CC(c3cccc(Cl)c3)C2)C(=O)N1c1cncc2ccccc12` (stereo not shown) [Compound 25, 2-(3-chlorophenyl)-7-(isoquinolin-4-yl)-5,7-diazaspiro[3.4]octane-6,8-dione] the figure was 6.03; with `O=C1NC2(CC(c3ccc(F)cc3)C2)C(=O)N1c1cncc2ccccc12` (stereo not shown) [Compound 27, 2-(4-fluorophenyl)-7-(isoquinolin-4-yl)-5,7-diazaspiro[3.4]octane-6,8-dione], 6.36.
Same read-out and setting: with `O=C1NC2(CC(c3ccc(F)cc3Cl)C2)C(=O)N1c1cncc2ccccc12` (stereo not shown) [Compound 32, 2-(2-chloro-4-fluorophenyl)-7-(isoquinolin-4-yl)-5,7-diazaspiro[3.4]octane-6,8-dione] the figure was 7.02; with `O=C1NC2(CC(c3ccc(F)cc3Cl)C2)C(=O)N1c1cncc2ccccc12` (stereo not shown) [Compound 33, 2-(2-chloro-4-fluorophenyl)-7-(isoquinolin-4-yl)-5,7-diazaspiro[3.4]octane-6,8-dione], 7.00.
